Results from patent US12448369B2 (Edgewise Therapeutics, Inc., priority 2023, dated 2025).

These compounds were tested on Rabbit Psoas myofibrils (skeletal myosin ATPase) (assay: Myofibril ATPase assay, rabbit psoas (skeletal) myofibrils). Settings: Y75 value (no ‡ mark); rabbit psoas myofibrils.
Type: biochemical
In short: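 Readout: A340 decline from NADH oxidation, PK/LDH-coupled to ADP release; kinetic reads over 75 min. Buffer: pCa (PIPES, CaCl2, EGTA), pH 7.0. Linear-regression slopes vs vehicle, 4PL fit; reported as concentration giving 75% (Y75) or 125% (Y125) of vehicle activity.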

SMILES	Skeletal EC25
Cc1nc(C#N)cnc1[C@@H](C)NC(=O)C(F)(F)c1c(C)c2cc(F)ccc2[nH]c1=O (single isomer, unassigned) [compound 2567]	0.33 µM
CC(C(=O)N[C@@H](C)c1ccc(F)cc1F)c1cc2ccccc2[nH]c1=O (stereo partly drawn) [compound 134]	7.99 µM
N#Cc1cnc2c(c1)OC[C@@H]2NC(=O)Cc1cc2c(F)c(F)ccc2[nH]c1=O (single isomer, unassigned) [compound 14]	0.07 µM
CC[C@@H](NC(=O)Cc1c(C)c2c(C)c(F)ccc2[nH]c1=O)c1ncc(C#N)cn1 (single isomer, unassigned) [compound 4833]	0.25 µM
Cc1c(CC(=O)N[C@@H](C)c2ncc(C#N)cc2F)c(=O)[nH]c2ccc(F)c(Cl)c12 (single isomer, unassigned) [compound 2052]	0.08 µM

Same assay, conditions: rabbit psoas myofibrils; Y75 value

SMILES	Skeletal EC25
Cc1c(CC(=O)N[C@H](C)c2ccc(C#N)cn2)c(=O)[nH]c2ccnc(C(F)(F)F)c12 [compound 155]	1.24 µM
Cc1c(CC(=O)N[C@@H](C)c2ccc(C#N)cn2)c(=O)[nH]c2ccc(OC(F)(F)F)nc12 [compound 450]	100.00 µM
Cc1nccc2[nH]c(=O)c(CC(=O)N[C@@H](C)c3ccccc3O)c(C)c12 (single isomer, unassigned) [compound 321]	100.00 µM
Cc1nc(C#N)cnc1[C@@H](C)NC(=O)Cc1c(C)c2nc(C(F)(F)F)ccc2[nH]c1=O (single isomer, unassigned) [compound 138]	2.85 µM
Cc1c(CC(=O)N[C@@H](CO)c2ccc(C#N)cc2F)c(=O)[nH]c2ccc(C#N)nc12 [compound 221]	2.27 µM
Cc1cc2[nH]c(=O)c(CC(=O)N[C@@H](C)c3ccc(F)cc3F)c(C)c2cn1 [compound 446]	4.59 µM
Cc1c(CC(=O)N[C@H](C)c2ccc(C#N)cc2F)c(=O)[nH]c2cnnc(C#N)c12 [compound 171]	15.02 µM
Cc1nccc2[nH]c(=O)c(CC(=O)N[C@@H](CO)c3ncc(F)cc3F)c(C)c12 (single isomer, unassigned) [compound 308]	1.82 µM
CC(=O)N1C[C@H](NC(=O)Cc2c(C)c3c(C)nccc3[nH]c2=O)c2c(F)cc(F)cc21 [compound 206]	0.40 µM
C[C@H](NC(=O)Cc1c(C(F)(F)F)c2c(C3CC3)nccc2[nH]c1=O)c1ccc(C#N)nn1 (single isomer, unassigned) [compound 3004]	5.99 µM
Cc1c(C(F)(F)C(=O)N[C@H](C)c2ncc(C#N)cc2F)c(=O)[nH]c2ccnc(C#N)c12 (single isomer, unassigned) [compound 3510]	0.16 µM

The compounds below were run on Porcine atria myofibrils (atrial myosin ATPase) (assay: Myofibril ATPase assay, porcine atria myofibrils). Settings: Y75 value (no ‡ mark); porcine atria myofibrils.
Type: biochemical
In short: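 Coupled PK-LDH readout, NADH loss at 340 nm, kinetic 75 min. Porcine atria myofibrils, pCa buffer (PIPES/CaCl2/EGTA, pH 7.0). Slopes (mAU/min) normalized to vehicle = 100%, 4-parameter fit; Y75 or Y125 reported.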

SMILES	Atrial EC25
Cc1nc(C#N)cnc1[C@@H](C)NC(=O)C(F)(F)c1c(C)c2cc(F)ccc2[nH]c1=O (single isomer, unassigned) [compound 2567]	0.34 µM
CC(C(=O)N[C@@H](C)c1ccc(F)cc1F)c1cc2ccccc2[nH]c1=O (stereo partly drawn) [compound 134]	100.00 µM
N#Cc1cnc2c(c1)OC[C@@H]2NC(=O)Cc1cc2c(F)c(F)ccc2[nH]c1=O (single isomer, unassigned) [compound 14]	0.21 µM
CC[C@@H](NC(=O)Cc1c(C)c2c(C)c(F)ccc2[nH]c1=O)c1ncc(C#N)cn1 (single isomer, unassigned) [compound 4833]	0.52 µM
Cc1c(CC(=O)N[C@@H](C)c2ncc(C#N)cc2F)c(=O)[nH]c2ccc(F)c(Cl)c12 (single isomer, unassigned) [compound 2052]	0.04 µM

Same assay, conditions: porcine atria myofibrils; Y75 value (75% activity relative to no compound)

SMILES	Atrial EC25
Cc1c(CC(=O)N[C@H](C)c2ccc(C#N)cn2)c(=O)[nH]c2ccnc(C(F)(F)F)c12 [compound 155]	6.06 µM
Cc1c(CC(=O)N[C@@H](C)c2ccc(C#N)cn2)c(=O)[nH]c2ccc(OC(F)(F)F)nc12 [compound 450]	100.00 µM
Cc1nccc2[nH]c(=O)c(CC(=O)N[C@@H](C)c3ccccc3O)c(C)c12 (single isomer, unassigned) [compound 321]	100.00 µM
Cc1nc(C#N)cnc1[C@@H](C)NC(=O)Cc1c(C)c2nc(C(F)(F)F)ccc2[nH]c1=O (single isomer, unassigned) [compound 138]	0.35 µM
Cc1c(CC(=O)N[C@@H](CO)c2ccc(C#N)cc2F)c(=O)[nH]c2ccc(C#N)nc12 [compound 221]	1.12 µM
Cc1cc2[nH]c(=O)c(CC(=O)N[C@@H](C)c3ccc(F)cc3F)c(C)c2cn1 [compound 446]	100.00 µM
Cc1c(CC(=O)N[C@H](C)c2ccc(C#N)cc2F)c(=O)[nH]c2cnnc(C#N)c12 [compound 171]	22.46 µM
Cc1nccc2[nH]c(=O)c(CC(=O)N[C@@H](CO)c3ncc(F)cc3F)c(C)c12 (single isomer, unassigned) [compound 308]	1.07 µM
CC(=O)N1C[C@H](NC(=O)Cc2c(C)c3c(C)nccc3[nH]c2=O)c2c(F)cc(F)cc21 [compound 206]	100.00 µM
C[C@H](NC(=O)Cc1c(C(F)(F)F)c2c(C3CC3)nccc2[nH]c1=O)c1ccc(C#N)nn1 (single isomer, unassigned) [compound 3004]	10.04 µM
Cc1c(C(F)(F)C(=O)N[C@H](C)c2ncc(C#N)cc2F)c(=O)[nH]c2ccnc(C#N)c12 (single isomer, unassigned) [compound 3510]	0.44 µM

Each compound was assayed against T1, Porcine ventricle myofibrils (ventricular myosin ATPase) (Sus scrofa, UniProt P79293) (assay: Myofibril ATPase assay, porcine ventricle myofibrils). Settings: Y75 value (no ‡ mark); porcine ventricle myofibrils.
T1 construct: Myofibrils from porcine cardiac muscle was isolated from the left ventricle of Yucatan minipigs; tissue Exemplar Genetics; host or cells: left ventricle of Yucatan minipigs, myofibrils prepared in house
T1 sequence (P79293 whole entry): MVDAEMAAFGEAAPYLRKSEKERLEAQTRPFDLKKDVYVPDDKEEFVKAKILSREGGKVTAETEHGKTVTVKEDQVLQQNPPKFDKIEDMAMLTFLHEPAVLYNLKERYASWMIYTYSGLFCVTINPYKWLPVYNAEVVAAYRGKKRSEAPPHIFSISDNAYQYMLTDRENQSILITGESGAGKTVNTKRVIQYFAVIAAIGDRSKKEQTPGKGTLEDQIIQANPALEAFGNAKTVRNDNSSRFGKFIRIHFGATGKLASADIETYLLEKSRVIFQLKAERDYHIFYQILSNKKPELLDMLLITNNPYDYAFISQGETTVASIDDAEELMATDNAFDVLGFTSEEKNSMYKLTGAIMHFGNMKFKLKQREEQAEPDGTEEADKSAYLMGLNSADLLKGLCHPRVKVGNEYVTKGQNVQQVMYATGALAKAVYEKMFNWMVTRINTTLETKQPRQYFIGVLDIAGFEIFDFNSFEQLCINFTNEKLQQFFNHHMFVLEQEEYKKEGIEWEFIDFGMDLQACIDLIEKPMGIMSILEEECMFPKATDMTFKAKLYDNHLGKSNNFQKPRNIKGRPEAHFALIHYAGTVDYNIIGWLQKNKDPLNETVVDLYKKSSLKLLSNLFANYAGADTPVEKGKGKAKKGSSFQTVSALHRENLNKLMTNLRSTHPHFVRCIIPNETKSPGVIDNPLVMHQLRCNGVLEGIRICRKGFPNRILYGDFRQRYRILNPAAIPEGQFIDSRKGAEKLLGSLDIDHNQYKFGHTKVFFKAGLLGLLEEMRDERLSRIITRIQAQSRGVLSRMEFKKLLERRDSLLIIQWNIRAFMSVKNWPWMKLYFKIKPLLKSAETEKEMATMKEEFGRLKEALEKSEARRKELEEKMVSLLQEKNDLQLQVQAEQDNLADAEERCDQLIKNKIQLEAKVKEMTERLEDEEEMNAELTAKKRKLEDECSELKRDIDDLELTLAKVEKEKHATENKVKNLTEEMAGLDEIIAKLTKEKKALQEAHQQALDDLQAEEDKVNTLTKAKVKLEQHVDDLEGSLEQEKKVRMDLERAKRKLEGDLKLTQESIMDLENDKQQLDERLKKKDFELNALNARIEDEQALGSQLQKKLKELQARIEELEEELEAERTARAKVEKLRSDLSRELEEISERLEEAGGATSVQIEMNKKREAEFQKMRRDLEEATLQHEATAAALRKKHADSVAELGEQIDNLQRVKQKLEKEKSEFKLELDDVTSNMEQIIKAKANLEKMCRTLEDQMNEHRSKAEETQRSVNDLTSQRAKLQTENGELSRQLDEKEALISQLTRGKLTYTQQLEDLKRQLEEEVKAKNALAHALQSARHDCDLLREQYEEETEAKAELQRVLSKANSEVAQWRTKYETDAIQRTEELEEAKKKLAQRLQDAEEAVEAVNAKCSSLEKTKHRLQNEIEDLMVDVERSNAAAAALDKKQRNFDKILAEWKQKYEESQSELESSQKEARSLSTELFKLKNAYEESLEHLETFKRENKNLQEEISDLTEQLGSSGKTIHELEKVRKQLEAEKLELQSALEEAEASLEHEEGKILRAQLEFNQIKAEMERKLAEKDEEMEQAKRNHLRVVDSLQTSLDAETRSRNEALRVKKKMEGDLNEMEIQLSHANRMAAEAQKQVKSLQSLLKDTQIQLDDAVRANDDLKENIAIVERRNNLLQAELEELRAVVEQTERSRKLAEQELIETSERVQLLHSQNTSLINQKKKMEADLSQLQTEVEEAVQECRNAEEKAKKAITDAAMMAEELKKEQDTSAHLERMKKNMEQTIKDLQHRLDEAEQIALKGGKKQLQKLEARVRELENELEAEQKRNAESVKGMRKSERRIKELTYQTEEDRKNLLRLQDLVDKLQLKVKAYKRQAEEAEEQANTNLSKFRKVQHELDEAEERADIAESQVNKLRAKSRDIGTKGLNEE
Type: biochemical, porcine (Yucatan minipigs)
In short: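 Left-ventricle myofibrils from Yucatan minipigs were tested with a PK/LDH-coupled system, following NADH loss at 340 nm every 1.5-2 min for 75 min. Slopes were normalized to vehicle wells and fit to a 4-parameter logistic model; values are Y75 (25% ATPase reduction) or Y125 concentrations.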

SMILES	Ventricular EC25
Cc1nc(C#N)cnc1[C@@H](C)NC(=O)C(F)(F)c1c(C)c2cc(F)ccc2[nH]c1=O (single isomer, unassigned) [compound 2567]	1.07 µM
CC(C(=O)N[C@@H](C)c1ccc(F)cc1F)c1cc2ccccc2[nH]c1=O (stereo partly drawn) [compound 134]	100.00 µM
N#Cc1cnc2c(c1)OC[C@@H]2NC(=O)Cc1cc2c(F)c(F)ccc2[nH]c1=O (single isomer, unassigned) [compound 14]	0.34 µM
CC[C@@H](NC(=O)Cc1c(C)c2c(C)c(F)ccc2[nH]c1=O)c1ncc(C#N)cn1 (single isomer, unassigned) [compound 4833]	1.04 µM
Cc1c(CC(=O)N[C@@H](C)c2ncc(C#N)cc2F)c(=O)[nH]c2ccc(F)c(Cl)c12 (single isomer, unassigned) [compound 2052]	0.09 µM

Same assay, conditions: porcine ventricle myofibrils; Y75 value

SMILES	Ventricular EC25
Cc1c(CC(=O)N[C@H](C)c2ccc(C#N)cn2)c(=O)[nH]c2ccnc(C(F)(F)F)c12 [compound 155]	62.81 µM
Cc1c(CC(=O)N[C@@H](C)c2ccc(C#N)cn2)c(=O)[nH]c2ccc(OC(F)(F)F)nc12 [compound 450]	100.00 µM
Cc1nccc2[nH]c(=O)c(CC(=O)N[C@@H](C)c3ccccc3O)c(C)c12 (single isomer, unassigned) [compound 321]	100.00 µM
Cc1nc(C#N)cnc1[C@@H](C)NC(=O)Cc1c(C)c2nc(C(F)(F)F)ccc2[nH]c1=O (single isomer, unassigned) [compound 138]	1.17 µM
Cc1c(CC(=O)N[C@@H](CO)c2ccc(C#N)cc2F)c(=O)[nH]c2ccc(C#N)nc12 [compound 221]	45.66 µM
Cc1cc2[nH]c(=O)c(CC(=O)N[C@@H](C)c3ccc(F)cc3F)c(C)c2cn1 [compound 446]	100.00 µM
Cc1c(CC(=O)N[C@H](C)c2ccc(C#N)cc2F)c(=O)[nH]c2cnnc(C#N)c12 [compound 171]	100.00 µM
Cc1nccc2[nH]c(=O)c(CC(=O)N[C@@H](CO)c3ncc(F)cc3F)c(C)c12 (single isomer, unassigned) [compound 308]	12.24 µM
CC(=O)N1C[C@H](NC(=O)Cc2c(C)c3c(C)nccc3[nH]c2=O)c2c(F)cc(F)cc21 [compound 206]	100.00 µM
C[C@H](NC(=O)Cc1c(C(F)(F)F)c2c(C3CC3)nccc2[nH]c1=O)c1ccc(C#N)nn1 (single isomer, unassigned) [compound 3004]	100.00 µM
Cc1c(C(F)(F)C(=O)N[C@H](C)c2ncc(C#N)cc2F)c(=O)[nH]c2ccnc(C#N)c12 (single isomer, unassigned) [compound 3510]	1.30 µM
